Test results: patent US10668283B2, “Brain stimulation tool configuration” (Elminda Ltd., priority 2014, dated 2020)

What was measured:
Type in all cases: in vivo, human
groups of subjects = assay: Group BNA patterns from EEG data recorded during a working memory test (cue/probe face matching); conditions: memorization and retrieval, versus placebo
Source text: FIGS. 10A-H show group BNA patterns constructed from EEG data recorded from two groups of subjects during a working memory test. The black dots in FIGS. 10A-H show the locations of the EEG electrodes, and the color codes in these BNA patterns is the same as defined above. During the test, each subject of the group was asked to memorize an image of a human face (referred to as the “cue”). Two seconds later, the subject was again presented with an image of a human face (referred to as the “probe”) and was asked to determine whether the probe matches the cue.
The BNA patterns of the first group are shown in FIGS. 10A-D. FIGS. 10A and 10B are group BNA patterns constructed following treatment with a placebo (referred to below as placebo A), and FIGS. 10C and 10D are group BNA patterns constructed following treatment with a Scopolamine. The BNA patterns of the second group are shown in FIGS. 10E-H, where FIGS. 10E and 10F are group BNA patterns constructed following treatment with a placebo (referred to below as placebo B), and FIGS. 10G and 10H are BNA patterns constructed following treatment with a Ketamine.
The BNA pattern of FIGS. 10A, 10C, 10E and 10G were constructed from the data acquired during the time at which the cue was presented and are recognized by the present inventor as containing information pertaining to the memorization process in the brain (also known in the literature as “encoding”). The BNA patterns of FIGS. 10B, 10D, 10F and 10H were constructed from the data acquired during the time at which the probe was presented, and are recognized by the present inventor as containing information pertaining to the retrieval process in the brain. It is noted that the BNA patterns of FIGS. 10A-H describe differentiating activity networks. Thus, for example, the BNA pattern of FIG. 10A describes the brain activity during cue that most differentiated between placebo A and Scopolamine, and the BNA pattern of […] describes the brain activity during cue that most differentiated between placebo B and Ketamine.

healthy volunteers = assay: Scopolamine induced cognitive impairment model: ΔBNA scores in Auditory Oddball Task against SEM of the normative database; conditions: scopolamine 0.4 mg, Novel stimulus, connectivity score; only 2 patients receiving placebo
Source text: The task chosen for this study was the Auditory Oddball Task, but other tasks are not excluded from the scope of the present invention. FIG. 21 is a schematic representation of an Auditory Oddball Task used in this study. The task included 600 repetitive 1000 ms auditory stimulations of which 80% were 2000 Hz stimuli (Frequent—blue circles), 10% were 1000 Hz stimuli requiring a motor response (Target—red circles) and 10% were rare non-targets composed of various sounds (Novel—yellow star). The stimuli were separated by 1500 ms intervals. The sound was delivered through a headset at a sound pressure level of 70 dB.
A pharmacological model study included 13 healthy volunteers of both genders, Aged 18-45. The volunteers were subjected to 3 Consecutive BNA sessions were, 1 week apart. A first session was used as a baseline, one of the two other sessions included administration of scopolamine (0.4 mg), and the other of the two other sessions included administration of placebo. The second and third sessions were at random order, double blind. ΔBNA Score values (Baseline—Placebo and Baseline—Drug) were evaluated against SEM values.
Shown are Plots of the ΔBNA (Baseline—treatment) connectivity score values for the Novel response. Each symbol is a single subject, tested once following Drug and once following Placebo. […]

[1] = system: healthy volunteer subjects; assay: BNA pattern similarity from EEG data of healthy volunteers during an attention-related oddball task after scopolamine; clinical behavioral endpoint; conditions: for BNA pattern similarity to baseline BNA pattern of healthy subjects following placebo: following scopolamine
Source text: FIGS. 8A-D show associated subject-specific BNA patterns constructed from EEG data recorded from two healthy volunteer subjects. The black dots in FIGS. 8A-D show the locations of the EEG electrodes, and the color codes in these BNA patterns are the same as defined above. The subject-specific BNA patterns shown in FIGS. 8A-D describe the association of the subjects to a group of healthy subjects following treatment with a placebo drug and while performing an attention task related oddball task.
FIGS. 8A and 8C are subject-specific BNA patterns constructed from EEG data collected from a first subject (FIG. 8A) and a second subject (FIG. 8C) following treatment with a placebo, and FIGS. 8B and 8D are subject-specific BNA patterns constructed from EEG data collected from the first subject (FIG. 8B) and the second subject (FIG. 8D) following treatment with a scopolamine drug. Scopolamine is an anticholinergic drug with inhibitory effect on M2-cholinergic receptors of excited type. It has an inhibitory effect on the cerebral cortex, typically inducing slight-anesthetic effect.
A BNA pattern similarity was calculated for each of the subject-specific BNA patterns shown in FIGS. 8A-D. The calculated similarities are 0.937, 0.079, 1.0 and 0.94, respectively. It is recognized by the present inventors that these similarity values indicate that the responsivity to scopolamine is high for the first subject (FIGS. 8A and 8B) and low for the second subject (FIGS. 8C and 8D).

ADHD subject = assay: BNA pattern similarity from EEG data of ADHD subjects before and after MPH treatment
Source text: The BNA patterns shown in FIGS. 6A-D are associated subject-specific BNA patterns constructed from EEG data recorded from a particular ADHD subject. The black dots in FIGS. 6A-D show the locations of the EEG electrodes. The color codes in these BNA patterns are the same as defined above. The subject-specific BNA patterns shown in FIGS. 6A-B describe the association of the ADHD subject to a group of untreated ADHD subjects, and the BNA patterns shown in FIGS. 6C-D describe the association of the ADHD subject to a group of ADHD subjects all treated with methylphenidate (MPH). The subject-specific BNA patterns shown in FIGS. 6A and 6C are based on EEG data recorded from the ADHD subject before any treatment, and subject-specific BNA patterns shown in FIGS. 6B and 6D are based on EEG data recorded from the ADHD subject following a treatment with MPH.
The baseline annotated BNA pattern constructed from the group of untreated ADHD subjects, and the baseline annotated BNA pattern constructed from the same group of subjects, but following treatment with MPH are shown in FIGS. 6E and 6F, respectively.
A BNA pattern similarity was calculated for each of the subject-specific BNA patterns shown in FIGS. 6A-D. The calculated similarity corresponding to the BNA pattern of FIG. 6A is 0.73, the calculated similarity corresponding to the BNA pattern of FIG. 6B is 0.19, the calculated similarity corresponding to the BNA pattern of FIG. 6C is 0.56, and the calculated similarity corresponding to the BNA pattern of FIG. 6D is 0.6.
The BNA patterns shown in FIGS. 7A-D were constructed from EEG data recorded from a different ADHD subject, which was also treated with MPH according to the same protocol as described above with respect to the responder subject of FIGS. 6A-D. The black dots in FIGS. 7A-D show the locations of the EEG electrodes, and the color codes in these BNA patterns is the same as defined above. Thus, the subject-specific BNA patterns shown in FIGS. 7A-B describe the association of the ADHD subject to a group of untreated ADHD subjects, and the BNA patterns shown in FIGS. 7C-D describe the association of the ADHD subject to a group of ADHD subjects all treated with methylphenidate (MPH). The subject-specific BNA patterns shown in FIGS. 7A and 7C are based on EEG data recorded from the ADHD subject before any treatment, and subject-specific BNA patterns shown in FIGS. 7B and 7D are based on EEG data recorded from the ADHD subject following a treatment with MPH.

Compound	effect on central and frontal activation in group BNA pattern (groups of subjects)	effect on fronto-parietal part / connectivity of group BNA pattern (groups of subjects)	patients with post-treatment BNA scores more than 2 SEM lower than the baseline score (healthy volunteers)	BNA pattern similarity to baseline BNA pattern of healthy subjects following placebo ([1]; first subject (FIG. 8B), 0.937 following placebo)	responsivity to scopolamine as indicated by similarity values ([1]; first subject (FIGS. 8A and 8B))	decrease in behavioral endpoint (clinical observations) ([1]; first subject, following treatment with scopolamine) [%]	BNA pattern similarity to baseline BNA pattern of healthy subjects following placebo ([1]; second subject (FIG. 8D), 1.0 following placebo)	responsivity to scopolamine as indicated by similarity values ([1]; second subject (FIGS. 8C and 8D))	change in behavioral endpoint (clinical observations) ([1]; second subject, following treatment with scopolamine)	BNA pattern similarity to the group of untreated ADHD subjects (ADHD subject; different ADHD subject (FIG. 7B), following treatment with MPH, 0 before treatment)	BNA pattern similarity to the group of ADHD subjects treated with MPH (ADHD subject; different ADHD subject (FIG. 7D), following treatment with MPH, 0.06 before treatment)	responsiveness of the subject to the treatment as indicated by similarity values (ADHD subject; different ADHD subject (FIGS. 7A-D))	BNA pattern similarity to the baseline BNA pattern for untreated ADHD group (ADHD subject; first ADHD subject (FIG. 6B), following single dose treatment with MPH, 0.73 before treatment)	BNA pattern similarity to the baseline BNA pattern for the treated ADHD group (ADHD subject; first ADHD subject (FIG. 6D), following single dose treatment with MPH, 0.56 before treatment)	responsiveness of the subject to the treatment as indicated by similarity values (ADHD subject; first ADHD subject (FIGS. 6A-D))	effect on right lateralization in group BNA pattern (groups of subjects)
CN1[C@@H]2C[C@@H](OC(=O)[C@H](CO)c3ccccc3)C[C@H]1[C@@H]1O[C@@H]12 [scopolamine]	extensive compensatory central and frontal activation	low connectivity between frontal and parietal regions	Eight out of 13	0.079	high	70	0.94	low	no change in behavioral endpoint	–	–	–	–	–	–	–
COC(=O)C(c1ccccc1)C1CCCCN1 (stereo not drawn) [MPH, methylphenidate]	–	–	–	–	–	–	–	–	–	0	0	not responsive to the treatment	0.19	0.6	responsive to the treatment	–
CNC1(c2ccccc2Cl)CCCCC1=O (stereo not drawn) [ketamine]	increased central and frontal activation	No significant change in the fronto-parietal part of the BNA pattern	–	–	–	–	–	–	–	–	–	–	–	–	–	decreased right lateralization
